Consider 14 compounds from patent US7259167B2, “Antimalarial and antiproliferative pharmacophore models, novel tryptanthrin compounds having increased solubility, and methods of making and using thereof” (United States of America as Represented by the Secretary of …, priority 2002, dated 2007).

Data set [1] can be described thus: Cyclic voltammetry, redox potentials. The format is physicochemical. The arrangement: unit not given here. As to conditions: 1 mM in acetonitrile, 0.1 M tetrabutylammonium hexafluorophosphate, Ag-AgCl reference. The procedure: The redox potentials associated with electron transfer to the oxygen atoms in compounds was measured. Experiments were performed on a CV-50W Voltammetric analyzer with a C2 cell stand (Bioanalytical systems, West Lafayette Ind.).
Cyclic voltammetry experiments were performed on a CV-50W Voltammetric analyzer with a C2 cell stand (Bioanalytical systems, West Lafayette Ind.). A glassy carbon working, an Ag—AgCl reference electrode and a Pt auxiliary electrode were used in a 5 ml glass cell. All samples were dissolved in dry acetonitrile (Aldrich, St. Louis, Mo.) with 0.1 M tetrabutylammonium hexafluorophosphate (Aldrich, St. Louis, Mo.) as the supporting electrolyte. Each analog was prepared at a concentration of 1 mM and was degassed with nitrogen for 5 minutes prior to analysis. Samples were run at several scan rates ranging from 20 to 1000 mV/s. See Smyth, M. R., and Vos, J. G. Analytical Voltammetry; Elsevier: New York, 1992; Chapter 1, which is herein incorporated by reference.

For data set [2], the system named is P. falciparum D6 (Sierra Leone) clone. As to the kind of experiment: Antimalarial activity assay in vitro ([3H]hypoxanthine incorporation), D6 clone. The format is cell-based. As to conditions: Plasmodium falciparum, Table 7, read-out: D-6. The procedure:
(§1) The tryptanthrin compounds were examined for IC50 values against either the P. falciparum W2 (Indochina) or D6 (Sierra Leone) clones in vitro. See U.S. Pat. No. 6,284,772, which is herein incorporated by reference. The in vitro assays were conducted by using the semiautomated microdilution technique of Desjardins, et al. (1979) Antimicrob. Agents Chemther. 16:710-718 and the [^3H]hypoxanthine incorporation techniques of Chulay et al. (1983) Exp. Parasitol. 55:138-146, both of which are herein incorporated by reference. […] The clones were derived by direct visualization and micromanipulation from the patient isolates.
(§2) Test tryptanthrin compounds were initially dissolved in DMSO and diluted 400-fold in RPMI 1640 culture medium supplemented with 25 mM Hepes, 32 mM NaHCO3 and 10% Albumax I (GIBCO BRL, Grand Island, N.Y.). These solutions were subsequently serially diluted 2-fold with a Biomek 1000 (Beckman, Fullerton, Calif.) over 11 different concentrations. The parasites were exposed to serial dilutions of each compound for 48 hours and incubated at 37° C. with 5% O2, 5% CO2, and 90% N2 prior to the addition of [^3H]hypoxanthine. After a further incubation of 18 hours, parasite DNA was harvested from each microtiter well using a Packard Filtermate 196 Harvester (Meriden, Conn.) onto glass filters. Uptake of [^3H]hypoxanthine was measured with a Packard topcount scintillation counter.

Data set [3] relates to P. falciparum W2 (Indochina) clone. As to the kind of experiment: Antimalarial activity assay in vitro ([3H]hypoxanthine incorporation), W2 clone. The format is cell-based. To be noted: Plasmodium falciparum, Table 7, read-out: W-2.
Description: Although two P. falciparum malaria parasite clones, designated as Sierra Leone (D6) and Indochina (W2) were used in the susceptibility testing as disclosed in Example 1, the IC50 values obtained from the W2 clones were used as the activity parameter to develop the pharmacophore model as the D6 clone results closely paralleled the W2 clones. See U.S. Pat. No. 6,284,772, which is herein incorporated by reference.
as §1, §2

Data set [4] can be described thus: Hemin binding activity assay by 1H NMR (pseudocontact shifts). As to conditions: for Maximum induced Δδ: hemin induced pseudocontact chemical shift; for Maximum induced Δδ / Concentration dependence Δδ: DMSO-d6; for Concentration dependence Δδ: slope of Δδ v. hemin concentration. The procedure: As provided in Example 5, the hemin binding affinity for a series of tryptanthrin compounds with functional groups at the 8-position with different electron donating/withdrawing characteristics corresponding with the pharmacophore model of the present invention was determined by ^1H NMR. The binding interaction was measured as a function of the induced up-field shift in the chemical shift as a function of increasing hemin concentration. ^1H spectra of selected compounds each analog with an increasing concentration of hemin were collected and analyzed for the effect of the pseudocontact shifts.
It is well known that bio-molecules containing the paramagnetic species Fe^+3 induce via pseudocontact effect (a thru-space paramagnetic interaction, similar to the thru-space diopolar interaction or NOE) up-field chemical shifts of the ^1H, ^13C, ^15N atoms of bound ligands. See Serge Moreau et al. (1985) Biochemica et. Biophysica Acta 107-116; Alam, S. L., et al. (1998) J. Biomol. NMR 11:119-133; and Kalodimos, C. G., et al. (2000) J. Inorg. Biochem. 79:371-380, which are herein incorporated by reference. […] See Crowley, P. B., et al. (2001) J. Am. Chem. Soc. 123:10444-10453, which is herein incorporated by reference. Consequently, the closer a particular proton on the ligand is to the Fe^+3 atom, the greater the induced Δδ.
The hemin binding affinity for a series of tryptanthrin compounds with functional groups at the 8-position with different electron donating/withdrawing characteristics corresponding with the pharmacophore model of the present invention was determined using ^1H NMR. The binding interaction was measured as a function of the induced up-field shift in the chemical shift as a function of increasing hemin concentration. ^1H spectra of each analog with an increasing concentration of hemin were collected and analyzed for the effect of the pseudocontact shifts.
To each sample, a 100 or 200 μl aliquot of a known concentration of hemin dissolved in 1.0 ml of DMSO-d6 was added. The concentrations of the tryptanthrin compounds compounds ranged from 3.0 to 8.0 mg per 500 μl of DMSO. A corresponding solution of hemin in DMSO was prepared to maintain a molar ratio of tryptanthrin compounds to hemin in the range of 1:1.0 to 1:1.5.
All ^1H NMR data was collected using a Bruker Avance-600 spectrometer using methods known in the art. See e.g. Wang, J., et al. (2001) J. Am. Chem. Soc. 123:8080-8088, which is herein incorporated by reference. The proton spectra were collected at 300 K, using a spectral width of 9090.9 Hz. All spectra were acquired with 64k data points in F2. All chemical shifts were referenced internally to TMS (0.00 ppm). The spectra were processed using XWINNMR (Bruker BioSpin Corporation, Billerica, Mass.) on a Silicon Graphics O2 workstation (Silicon Graphics, Mountain View, Calif.). Each data set was multiplied by a Gaussain window function with 0.3 Hz line broadening in each dimension before transformation.

A further data set concerns malaria parasites. As to the kind of experiment: In vivo testing (modified Thompson test), mouse malaria. The arrangement: species or system mice. From the text:
The in vivo efficacy of the compounds of the present invention alone or in combination with an adjuvant can be determined in a modified Thompson test. This test measures the survivability of mice and parasitemia clearance following administration of the compound or composition of the invention on days 3-5 post infection. In brief, 5×10^5 malaria parasites of one or more of the four described strains are inoculated intraperitoneally to female mice that weight approximately 24-30 g. Each compound was dissolved in 5% sodium bicarbonate, and was administered p.o. twice daily from day 3 to day 5 postinfection. Total dosage of the compounds of the invention is 0.001 to 1000 mg/kg. The percent suppression of parasitemia in the treated mice compared to untreated controls is determined for each test compound. Survival of mice to day 60 post infection is considered a cure. Compounds are considered active when the survival time of the treated mice is greater than twice the control mice.
The test of the six compounds identified above were conducted by subcutaneous dosing in peanut oil. Formulated in peanut oil and injected s.c. (N=8) at various doses up to 190 mg/kg. […] Although parasites were not cleared, the survival of infected mice doubled that of the control. Life expectancy was 12-14 days compared to 6-7 days in the control (parasitized, untreated).

Values after ≈ are worked out from the molar mass of the structure shown.

In the case of `CN1CCN(c2ccc3c(=O)n4c(nc3c2)C(=O)c2cc(Cl)ccc2-4)CC1` [WR281588], in data set [1], the Redox1 was −692 and the “Redox 2” value is reported as −1324. For the same compound, the IC50 in data set [2] worked out at 10.5 ng/mL (≈ 0.0275 µM). The IC50 in data set [3] came out at 4.27 ng/mL (≈ 0.0112 µM).
Regarding `CCCCCCCC(=O)OCCN(C)c1ccc2c(=O)n3c(nc2c1)C(=O)c1cc(Cl)ccc1-3` [WR281591], in data set [1], the Redox1 is recorded as −709 and the “Redox 2” value was −1375. Also, in data set [2], the IC50 is 70.1 ng/mL (≈ 0.146 µM). Also, the IC50 in data set [3] is 36.8 ng/mL (≈ 0.0764 µM).
Take `O=C1c2ccc(Cl)cc2-n2c1nc1ncccc1c2=O` [DN48]: in data set [4], the “Maximum induced Δδ” value was determined as 0.389 ppm and the “Concentration dependence Δδ” value is reported as 0.119 ppm/mole %.
For `COc1ccc2c(c1)C(=O)c1nc3ncccc3c(=O)n1-2` [DN23] the same measures were 0.208 ppm and 0.119 ppm/mole %.
Consider `O=C1c2cc(F)ccc2-n2c1nc1ccccc1c2=O` [WR^282611], for which the “survival of infected mice relative to control” value with malaria parasites (190 mg/kg s.c. in peanut oil) is given as “doubled”. Also, the Life expectancy in the data set on malaria parasites (190 mg/kg s.c. in peanut oil, control 6-7 days) lay within 12 to 14 days. Further, the activity entry with malaria parasites (max. dosage 190 mg/kg s.c. in peanut oil) is reported as “exhibited activity”.
Consider `O=C1c2cc(OC(F)(F)F)ccc2-n2c1nc1ncccc1c2=O` [DN9], for which, in data set [4], the “Maximum induced Δδ” value amounted to 0.462 ppm and the “Concentration dependence Δδ” value is 0.08951 ppm/mole %.
Consider `O=C1c2cc([N+](=O)[O-])ccc2-n2c1nc1ncccc1c2=O` [DN40], for which the “maximum pseudocontact shift relative to DN48” value in data set [4] (compared with DN48) is “approximately 3 times”. Further, in data set [4], the “Maximum induced Δδ” value is reported as 1.538 ppm and the “Concentration dependence Δδ” value was determined as 0.4159 ppm/mole %.
Regarding `O=C1c2cc(F)ccc2-n2c1nc1c(F)cccc1c2=O` [WR281631], the Redox1 in data set [1] was −593. The “Redox 2” value in data set [1] is −1219. Further, the results for the IC50 in data set [2] and in data set [3] were 2.57 ng/mL (≈ 0.00904 µM) and 1.58 ng/mL (≈ 0.00557 µM), respectively.
For `COc1cccc2c(=O)n3c(nc12)C(=O)c1cc(I)ccc1-3` [WR281635], the Redox1 in data set [1] is reported as −640. The “Redox 2” value in data set [1] was −1230. For the same compound, the IC50 was 95.3 ng/mL (≈ 0.236 µM) in data set [2] and 35.6 ng/mL (≈ 0.0882 µM) in data set [3].
For the compound `O=C1c2cc(OC(F)(F)F)ccc2-n2c1nc1cc(SCCO)ccc1c2=O` [WR281525], in data set [1], the Redox1 is −600 and the “Redox 2” value is recorded as −1252. The IC50 in data set [2] was 2.31 ng/mL (≈ 0.00566 µM). Also, the IC50 in data set [3] stood at 1.25 ng/mL (≈ 0.00307 µM).
In the case of `O=C1c2cc(Cl)ccc2-n2c1nc1cc(F)ccc1c2=O` [WR281583], in data set [1], the Redox1 is on record as −586 and the “Redox 2” value is on record as −1242. Also, the IC50 in data set [2] amounted to 6.77 ng/mL (≈ 0.0225 µM). Moreover, in data set [3], the IC50 was 4.74 ng/mL (≈ 0.0158 µM).
As for `O=C1c2cc(Cl)ccc2-n2c1nc1cc(N3CCCCC3)ccc1c2=O` [WR281647], in data set [1], the Redox1 was −696 and the “Redox 2” value is listed as −1348. In data set [2], the IC50 was 97.1 ng/mL (≈ 0.265 µM). Further, the IC50 in data set [3] is 58.1 ng/mL (≈ 0.159 µM).
On to `CN(CCO)c1ccc2c(=O)n3c(nc2c1)C(=O)c1cc(F)ccc1-3` [WR281523], for which, in data set [1], the Redox1 is on record as −630 and the “Redox 2” value is given as −1281. For the same compound, the IC50 in data set [2] was determined as 4.12 ng/mL (≈ 0.0121 µM). For the same compound, the IC50 in data set [3] is 2.46 ng/mL (≈ 0.00723 µM).
In the case of `O=C1c2cc(F)ccc2-n2c1nc1ncccc1c2=O` [DN63], in data set [4], the “Maximum induced Δδ” value turned out to be 0.360 ppm and the “Concentration dependence Δδ” value came out at 0.1366 ppm/mole %.
